According to the supplement of paper PMC13380429:

Tests used:
A549-ACE2 [1] = experiment: drug-induced phospholipidosis relative to tamoxifen; higher = more phospholipidosis
U2OS [2] = experiment: cell viability relative to DMSO; higher = less toxic; settings: 72 h
Vero E6 [3] = experiment: as above; settings: 72 h
Calu-3 [4] = experiment: as above; settings: 72 h
Caco-2 [5] = experiment: as above; settings: 72 h
HepG2 [6] = experiment: as above; settings: 72 h
[7] = tested on: A549-ACE2 infected with SARS-CoV-2; experiment: morphology score (similarity to uninfected cells); higher = more like uninfected cells; settings: 24 h
[8] = tested on: A549-ACE2 infected with SARS-CoV-2; experiment: SARS-CoV-2 infection rate relative to DMSO; higher = more infection; settings: 24 h
[9] = tested on: A549-ACE2 infected with SARS-CoV-2; experiment: cell count relative to DMSO; higher = less toxic; settings: 24 h
U2OS [10] = experiment: drug sensitivity score (DSS) for viability; higher = more toxic; extreme values may be limits of the assay; settings: 72 h
Vero E6 [11] = experiment: as above; settings: 72 h
Calu-3 [12] = experiment: as above; settings: 72 h
Caco-2 [13] = experiment: as above; settings: 72 h
HepG2 [14] = experiment: as above; settings: 72 h
U2OS [15] = experiment: relative viability EC50 (midpoint between 100% and the lowest measured viability); higher = less toxic; settings: 72 h
Vero E6 [16] = experiment: as above; settings: 72 h
Calu-3 [17] = experiment: as above; settings: 72 h
Caco-2 [18] = experiment: as above; settings: 72 h
HepG2 [19] = experiment: as above; settings: 72 h
A549-ACE2 [20] = experiment: phospholipidosis EC50; higher = less potent phospholipidosis inducer

CCCCCCCCCCC(O)C1C=CC2C(=O)N(c3ccccc3)C(=O)C2N1Nc1ccc([N+](=O)[O-])cc1 (centres undefined) [A12B4C3]
drug-induced phospholipidosis [%], A549-ACE2 [1]
Settings | 0.3 µM | 0.833333 µM | 3.33333 µM | 6.66667 µM | 10 µM | 30 µM
24 h | -2.18 | -1.14 | -1.42 | -1.07 | -2.23 | 12.3
48 h | 0.96 | -1.02 | 1.8 | 1.83 | 2.36 | 7.09
72 h | 1.78 | 0.183 | 1.98 | 2.85 | 2.51 | 10.2

Settings | SARS-CoV-2 infection rate, [8] [%] | cell count, [9] [%] | cell viability, Caco-2 [5] [%] | cell viability, Calu-3 [4] [%] | cell viability, HepG2 [6] [%] | cell viability, U2OS [2] [%] | cell viability, Vero E6 [3] [%] | morphology score, [7]
1 nM | – | – | 96.6 | 98.9 | 96.9 | 97.8 | 93.1 | –
10 nM | – | – | 99 | 104 | 91.2 | 104 | 99.9 | –
100 nM | – | – | 85.9 | 98.4 | 99.2 | 95.5 | 98.3 | –
0.3 µM | 92 | 107 | – | – | – | – | – | 0.31
1000 nM | – | – | 90 | 96.2 | 102 | 99 | 106 | –
3 µM | 95 | 105 | – | – | – | – | – | 0.4
10000 nM | – | – | 92 | 95.6 | 97.7 | 89 | 102 | –
10 µM | 68 | 110 | – | – | – | – | – | 0.65
30 µM | 37 | 104 | – | – | – | – | – | 0.6

Settings | drug sensitivity score | relative viability EC50 [µM]
Caco-2 [13] | 0.2 | –
Caco-2 [18] | – | > 10
Calu-3 [12] | 0 | –
Calu-3 [17] | – | > 10
HepG2 [14] | 0 | –
HepG2 [19] | – | > 10
U2OS [10] | 0 | –
U2OS [15] | – | > 10
Vero E6 [11] | 0 | –
Vero E6 [16] | – | > 10

C=CC(=O)Nc1cccc(C)c1Nc1ncc2cc(-c3c(Cl)c(OC)cc(OC)c3Cl)ccc2n1 [BLU9931]
drug-induced phospholipidosis [%], A549-ACE2 [1]
Settings | 0.3 µM | 0.833333 µM | 3.33333 µM | 6.66667 µM | 10 µM | 30 µM
24 h | 1.97 | 0.46 | 11 | 14.3 | 20.1 | 73.6
48 h | 2.96 | 1.66 | 13.1 | – | – | –
72 h | 1.37 | -1.51 | 4.02 | – | – | –

Settings | SARS-CoV-2 infection rate, [8] [%] | cell count, [9] [%] | cell viability, Caco-2 [5] [%] | cell viability, Calu-3 [4] [%] | cell viability, HepG2 [6] [%] | cell viability, U2OS [2] [%] | cell viability, Vero E6 [3] [%] | morphology score, [7]
1 nM | – | – | 103 | 99.4 | 102 | 101 | 106 | –
10 nM | – | – | 105 | 103 | 108 | 104 | 98.8 | –
100 nM | – | – | 97 | 97.5 | 96.3 | 97.4 | 99.8 | –
0.3 µM | 102 | 106 | – | – | – | – | – | 0.15
1000 nM | – | – | 96.8 | 101 | 90.5 | 104 | 97.6 | –
3 µM | 96 | 99 | – | – | – | – | – | 0.3
10000 nM | – | – | 81 | 53.7 | 34.2 | 43.8 | 85.8 | –
10 µM | 77 | 75 | – | – | – | – | – | 0.26
30 µM | 65 | 67 | – | – | – | – | – | 0.43

Settings | drug sensitivity score | relative viability EC50 [µM]
Caco-2 [13] | 0.9 | –
Caco-2 [18] | – | > 10
Calu-3 [12] | 2.3 | –
HepG2 [14] | 5.2 | –
HepG2 [19] | – | 2.02
U2OS [10] | 2.7 | –
U2OS [15] | – | 3.55
Vero E6 [11] | 0.4 | –
Vero E6 [16] | – | > 10

O=C1/C(=C/c2ccccc2)C[C@@]2(O)[C@H]3Cc4ccc(O)c5c4[C@@]2(CCN3CC2CC2)[C@H]1O5 [BNTX]
drug-induced phospholipidosis [%], A549-ACE2 [1]
Settings | 0.3 µM | 0.833333 µM | 3.33333 µM | 6.66667 µM
24 h | 0.73 | 2.81 | 24.9 | 20.5
48 h | 0.39 | 0.51 | 26 | –
72 h | 2.04 | 0.605 | – | –

Settings | SARS-CoV-2 infection rate, [8] [%] | cell count, [9] [%] | cell viability, Caco-2 [5] [%] | cell viability, Calu-3 [4] [%] | cell viability, HepG2 [6] [%] | cell viability, U2OS [2] [%] | cell viability, Vero E6 [3] [%] | morphology score, [7]
1 nM | – | – | 100 | 99.5 | 98.3 | 99.5 | 105 | –
10 nM | – | – | 101 | 95.6 | 99.3 | 102 | 102 | –
100 nM | – | – | 91.2 | 102 | 110 | 95.4 | 103 | –
0.1 µM | 94 | 101 | – | – | – | – | – | 0.09
0.3 µM | 93 | 106 | – | – | – | – | – | 0.34
1000 nM | – | – | 93.8 | 109 | 84.2 | 97.5 | 96.2 | –
1 µM | 59 | 108 | – | – | – | – | – | 0.64
3 µM | 11 | 89 | – | – | – | – | – | 0.68
10000 nM | – | – | 30 | 13.1 | 0.5 | 5.7 | 0.4 | –

Settings | drug sensitivity score | relative viability EC50 [µM]
Caco-2 [13] | 4.9 | –
Caco-2 [18] | – | 2.43
Calu-3 [12] | 4.2 | –
Calu-3 [17] | – | 3.66
HepG2 [14] | 8.1 | –
HepG2 [19] | – | 1.94
U2OS [10] | 5.6 | –
U2OS [15] | – | 2.97
Vero E6 [11] | 6.1 | –
Vero E6 [16] | – | 2.88

CCN1CCN(Cc2ccc(C(=O)Nc3ccc(C)c(Oc4ccc5c(c4)CC(=O)N5)c3)cc2C(F)(F)F)CC1 [DDR1-IN-1]
Settings | SARS-CoV-2 infection rate [%] | cell count [%] | cell viability [%] | morphology score | phospholipidosis EC50 [µM]
A549-ACE2 [20], 24 h | – | – | – | – | 1.39
A549-ACE2 [20], 48 h | – | – | – | – | 3.2
A549-ACE2 [20], 72 h | – | – | – | – | 4.19
Caco-2 [5], 1 nM | – | – | 102 | – | –
Caco-2 [5], 10 nM | – | – | 94.8 | – | –
Caco-2 [5], 100 nM | – | – | 101 | – | –
Caco-2 [5], 1000 nM | – | – | 88.1 | – | –
Caco-2 [5], 10000 nM | – | – | 58 | – | –
Calu-3 [4], 1 nM | – | – | 97.2 | – | –
Calu-3 [4], 10 nM | – | – | 101 | – | –
Calu-3 [4], 100 nM | – | – | 99.2 | – | –
Calu-3 [4], 1000 nM | – | – | 104 | – | –
Calu-3 [4], 10000 nM | – | – | 50.3 | – | –
HepG2 [6], 1 nM | – | – | 96.5 | – | –
HepG2 [6], 10 nM | – | – | 91.4 | – | –
HepG2 [6], 100 nM | – | – | 90.3 | – | –
HepG2 [6], 1000 nM | – | – | 104 | – | –
HepG2 [6], 10000 nM | – | – | 42.5 | – | –
U2OS [2], 1 nM | – | – | 100 | – | –
U2OS [2], 10 nM | – | – | 98.2 | – | –
U2OS [2], 100 nM | – | – | 99.6 | – | –
U2OS [2], 1000 nM | – | – | 94.5 | – | –
U2OS [2], 10000 nM | – | – | 79.8 | – | –
Vero E6 [3], 1 nM | – | – | 97.4 | – | –
Vero E6 [3], 10 nM | – | – | 99.5 | – | –
Vero E6 [3], 100 nM | – | – | 100 | – | –
Vero E6 [3], 1000 nM | – | – | 100 | – | –
Vero E6 [3], 10000 nM | – | – | 72.9 | – | –
[7], 0.1 µM | – | – | – | -0.13 | –
[7], 0.3 µM | – | – | – | -0.1 | –
[7], 1 µM | – | – | – | 0.26 | –
[7], 3 µM | – | – | – | 0.78 | –
[8], 0.1 µM | 98 | – | – | – | –
[8], 0.3 µM | 96 | – | – | – | –
[8], 1 µM | 61 | – | – | – | –
[8], 3 µM | 26 | – | – | – | –
[9], 0.1 µM | – | 102 | – | – | –
[9], 0.3 µM | – | 104 | – | – | –
[9], 1 µM | – | 114 | – | – | –
[9], 3 µM | – | 121 | – | – | –

drug-induced phospholipidosis [%], A549-ACE2 [1]
Settings | 0.3 µM | 0.833333 µM | 3.33333 µM | 6.66667 µM | 10 µM | 30 µM
24 h | 10.6 | 33.4 | 86.8 | 106 | 121 | 89.6
48 h | 6.52 | 20.9 | 67.3 | 89.5 | 109 | 118
72 h | 6.39 | 17.7 | 60.8 | 89.3 | 107 | 126

Settings | drug sensitivity score | relative viability EC50 [µM]
Caco-2 [13] | 3.9 | –
Calu-3 [12] | 2.3 | –
HepG2 [14] | 2.8 | –
HepG2 [19] | – | 3.52
U2OS [10] | 1.3 | –
U2OS [15] | – | > 10
Vero E6 [11] | 1.1 | –
